Columns and labels:
velvetleaf = assay: Test B pre/postemergence velvetleaf; type: in vivo, Abutilon theophrasti
Procedure, shortened: (§1)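 Test chemicals in a non-phytotoxic solvent mixture with surfactant were sprayed preemergence onto planted seeds and postemergence onto plants 2 to 18 cm tall (1- to 4-leaf stage). After twelve to sixteen days in a greenhouse, injury was visually rated against untreated controls from 0 (no effect) to 10 (complete control).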

morningglory = assay: Test B pre/postemergence morningglory; type: in vivo, Ipomoea hederacea
Procedure, shortened: as §1

smallflower flatsedge = assay: Test B flood test smallflower flatsedge; type: in vivo, Cyperus difformis
Procedure, shortened: (§2)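 Each value is a visual injury score relative to controls, with 10 meaning complete control and 0 no effect. Evaluation took place twelve to sixteen days after the 2-leaf-stage plants were treated and kept in the greenhouse.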

corn = assay: Test B pre/postemergence corn; type: in vivo, Zea mays
Procedure, shortened: as §1

rice = assay: Test B flood test rice; type: in vivo, Oryza sativa
Procedure, shortened: as §2

bedstraw = assay: Test B pre/postemergence bedstraw; type: in vivo, Galium aparine
Procedure, shortened: as §1

surinam grass = assay: Test B pre/postemergence surinam grass; type: in vivo, Brachiaria decumbens
Procedure, shortened: as §1

cocklebur = assay: Test B pre/postemergence cocklebur; type: in vivo, Xanthium strumarium
Procedure, shortened: as §1

pigweed = assay: Test B pre/postemergence pigweed; type: in vivo, Amaranthus retroflexus
Procedure, shortened: as §1

soybean = assay: Test B pre/postemergence soybean; type: in vivo, Glycine max
Procedure, shortened: as §1

giant foxtail = assay: Test B pre/postemergence giant foxtail; type: in vivo, Setaria faberii
Procedure, shortened: as §1

blackgrass = assay: Test B pre/postemergence blackgrass; type: in vivo, Alopecurus myosuroides
Procedure, shortened: as §1

bamyardgrass = assay: Test B flood test barnyardgrass; type: in vivo, Echinochloa crus-galli
Procedure, shortened: as §2

wheat = assay: Test B pre/postemergence wheat; type: in vivo, Triticum aestivum
Procedure, shortened: as §1

wild oat = assay: Test B pre/postemergence wild oat; type: in vivo, Avena fatua
Procedure, shortened: as §1

crabgrass = assay: Test B pre/postemergence crabgrass; type: in vivo, Digitaria sanguinalis
Procedure, shortened: as §1

[1] = Preemergence, Rate 62 g/ha, scale 0 to 10 (0 no effect, 10 complete control)
[2] = Preemergence, Rate 125 g/ha, 0 is no effect, 10 is complete control
[3] = Preemergence, Rate 250 g/ha, scale 0 to 10, 0 is no effect, 10 is complete control
[4] = Preemergence, Rate 500 g/ha, scale 0 to 10 (0 no effect, 10 complete control)
[5] = Rate 62 g/ha, Postemergence, scale of 0 to 10 where 0 is no effect and 10 is complete control
[6] = Rate 250 g/ha, Postemergence, scale 0 to 10, 0 is no effect, 10 is complete control
[7] = Rate 500 g/ha, Postemergence, scale 0 to 10
[8] = Postemergence (flood test species), Rate 125 g/ha, scale of 0 to 10 where 0 is no effect and 10 is complete control
[9] = Rate 62 g/ha, Postemergence section, flood test species, scale of 0 to 10 where 0 is no effect and 10 is complete control
[10] = Rate 250 g/ha, Postemergence (flood test), scale 0 to 10, 0 is no effect, 10 is complete control
[11] = Rate 500 g/ha, listed under Postemergence (flood test species), scale 0 to 10
[12] = Postemergence, Rate 125 g/ha, scale of 0 to 10 where 0 is no effect and 10 is complete control

C=CCn1c(=O)on(C(=O)N(c2ccc(F)cc2F)C(C)C)c1=O [Compound 151]
10: Velvetleaf plant response rating (velvetleaf; [3]) | Velvetleaf plant response rating (velvetleaf; [4]) | Redroot pigweed plant response rating (pigweed; [1]) | Redroot pigweed plant response rating (0 to 10 scale) (pigweed; [2]) | Redroot pigweed plant response rating (pigweed; [3]) | Redroot pigweed plant response rating (pigweed; [4]) | Giant foxtail plant response rating (0 to 10 scale) (giant foxtail; [2]) | Giant foxtail plant response rating (giant foxtail; [3]) | Giant foxtail plant response rating (giant foxtail; [4]) | Blackgrass plant response rating (blackgrass; [3]) | Blackgrass plant response rating (blackgrass; [4]) | Wild oats plant response rating (wild oat; [3]) | Wild oats plant response rating (wild oat; [4]) | Crabgrass plant response rating (crabgrass; [1]) | Crabgrass plant response rating (0 to 10 scale) (crabgrass; [2]) | Crabgrass plant response rating (crabgrass; [3]) | Crabgrass plant response rating (crabgrass; [4])
8: Velvetleaf plant response rating (0 to 10 scale) (velvetleaf; [2]) | S. Flatsedge plant response rating (smallflower flatsedge; [11]) | Giant foxtail plant response rating (giant foxtail; [12]) | Plant response rating, Giant foxtail (giant foxtail; [6]) | Giant foxtail plant response rating (giant foxtail; [7]) | Blackgrass plant response rating (blackgrass; [12]) | Blackgrass plant response rating (blackgrass; [1]) | Blackgrass plant response rating (blackgrass; [5]) | Plant response rating, Blackgrass (blackgrass; [6]) | Barnyardgrass plant response rating (bamyardgrass; Rate 500 g/ha, listed under Postemergence (flood test species), scale 0 to 10, 0 no effect, 10 complete control) | Wheat plant response rating (wheat; [7]) | Wild oats plant response rating (wild oat; [1]) | Wild oats plant response rating (wild oat; [7]) | Crabgrass plant response rating (crabgrass; [5])
6: Velvetleaf plant response rating (velvetleaf; [1]) | Plant response rating, Morningglory (morningglory; [6]) | Morningglory plant response rating (morningglory; [7]) | Corn plant response rating (corn; [7]) | Plant response rating, B. signalgrass (surinam grass; [6]) | Plant response rating, Wild oats (wild oat; [6])
2: Plant response rating, Corn (corn; [6]) | Plant response rating, Cocklebur (cocklebur; [6]) | Cocklebur plant response rating (cocklebur; [7]) | Wheat plant response rating (wheat; [1]) | Wheat plant response rating (0 to 10 scale) (wheat; [2])
5: Velvetleaf plant response rating (velvetleaf; [7]) | Corn plant response rating (corn; [3]) | B. signalgrass plant response rating (surinam grass; [3]) | Plant response rating, Redroot pigweed (pigweed; [6]) | Wheat plant response rating (wheat; [4])
9: Corn plant response rating (corn; [4]) | Giant foxtail plant response rating (giant foxtail; [1]) | Blackgrass plant response rating (0 to 10 scale) (blackgrass; [2]) | Blackgrass plant response rating (blackgrass; [7]) | Wild oats plant response rating (0 to 10 scale) (wild oat; [2]) | Crabgrass plant response rating (crabgrass; [12]) | Plant response rating, Crabgrass (crabgrass; [6]) | Crabgrass plant response rating (crabgrass; [7])
3: Velvetleaf plant response rating (velvetleaf; [5]) | Plant response rating, Velvetleaf (velvetleaf; [6]) | Bedstraw plant response rating (bedstraw; [12]) | Bedstraw plant response rating (bedstraw; [5]) | B. signalgrass plant response rating (surinam grass; [5]) | Redroot pigweed plant response rating (pigweed; [12]) | Redroot pigweed plant response rating (pigweed; [5]) | Soybean plant response rating (soybean; [3]) | Soybean plant response rating (soybean; [5])
0: Morningglory plant response rating (morningglory; [1]) | Morningglory plant response rating (0 to 10 scale) (morningglory; [2]) | Morningglory plant response rating (morningglory; [3]) | Morningglory plant response rating (morningglory; [4]) | S. Flatsedge plant response rating (smallflower flatsedge; [8]) | S. Flatsedge plant response rating (smallflower flatsedge; [9]) | Plant response rating, S. Flatsedge (smallflower flatsedge; [10]) | Corn plant response rating (corn; [12]) | Corn plant response rating (corn; [1]) | Corn plant response rating (0 to 10 scale) (corn; [2]) | Corn plant response rating (corn; [5]) | Rice plant response rating (rice; [8]) | Rice plant response rating (rice; [9]) | Plant response rating, Rice (rice; [10]) | Rice plant response rating (rice; [11]) | Bedstraw plant response rating (bedstraw; [1]) | Bedstraw plant response rating (0 to 10 scale) (bedstraw; [2]) | Bedstraw plant response rating (bedstraw; [3]) | Bedstraw plant response rating (bedstraw; [4]) | Cocklebur plant response rating (cocklebur; [12]) | Cocklebur plant response rating (cocklebur; [1]) | Cocklebur plant response rating (cocklebur; [3]) | Cocklebur plant response rating (cocklebur; [4]) | Cocklebur plant response rating (cocklebur; [5]) | Soybean plant response rating (soybean; [1]) | Soybean plant response rating (0 to 10 scale) (soybean; [2]) | Barnyardgrass plant response rating (bamyardgrass; [8]) | Barnyardgrass plant response rating (bamyardgrass; [9]) | Plant response rating, Barnyardgrass (bamyardgrass; [10]) | Wheat plant response rating (wheat; [5])
4: Morningglory plant response rating (morningglory; [5]) | Plant response rating, Bedstraw (bedstraw; [6]) | B. signalgrass plant response rating (surinam grass; [12]) | B. signalgrass plant response rating (surinam grass; [1]) | Soybean plant response rating (soybean; [12]) | Plant response rating, Soybean (soybean; [6]) | Soybean plant response rating (soybean; [7]) | Wheat plant response rating (wheat; [3]) | Plant response rating, Wheat (wheat; [6])
7: Bedstraw plant response rating (bedstraw; Rate 500 g/ha, Postemergence, scale 0 to 10, 0 no effect, 10 complete control) | B. signalgrass plant response rating (surinam grass; [4]) | B. signalgrass plant response rating (surinam grass; Rate 500 g/ha, Postemergence, scale of 0 to 10 where 0 is no effect and 10 is complete control) | Redroot pigweed plant response rating (pigweed; [7]) | Soybean plant response rating (soybean; [4]) | Giant foxtail plant response rating (giant foxtail; [5])

Reference: patent US6737383B1, “Herbicidal oxadiazolidines” (priority 1999, dated 2004)
